The source of these data is EP4471048A1, “PEPTIDE INHIBITORS OF INTERLEUKIN-23 RECEPTOR” (Zealand Pharma A/S, priority 2023, dated 2024).

As usually defined, the pIC50 is the IC50 on a negative log10 scale, so that one unit is a factor of ten.

pIC50: −log10 of the molar value. Where a SMILES comes first, the peptide text is derived from it. Bridges are numbered along the chain shown (N, C = ends). [ ]: non-standard residue; d: D form. 2Nal = N[C@@H](Cc1ccc2ccccc2c1)C(=O)O; AEF = NCCOc1ccc(C[C@H](N)C(=O)O)cc1; 3Pal = N[C@@H](Cc1cccnc1)C(=O)O; Lys(Me) = CNCCCC[C@H](N)C(=O)O; αMeL = CC(C)C[C@](C)(N)C(=O)O; NMeK = CN[C@@H](CCCCN)C(=O)O; Orn = NCCC[C@H](N)C(=O)O; Dab = NCC[C@H](N)C(=O)O; βAla = NCCC(=O)O

Series [1] in a line: Peptide stability in simulated intestinal fluid (SIF). It is filed as in vitro ADME. The conditions noted are these: 37 °C, porcine pancreatin; for SIF (% remaining 4 h): 10 µM; for SIF (% remaining 4 h) / remaining at 4 h, 10 µM: pH 6.8, 4 h; for remaining at 1 h, 10 µM / remaining at 4 h, 10 µM: pig; for remaining at 1 h, 10 µM: pH 6.8, 1 h. The method, then:
(§1) SGF was prepared by dissolving sodium chloride (0.2 g) in 50 mL of water. A volume of 0.7 mL of 10 M HCl was added to adjust the pH of the solution to 1.2 and the volume made up to 100 mL with water. […] SIF was prepared by dissolving monobasic potassium phosphate (0.68 g) in 50 mL of water and adjusting the pH to 6.8 with 1 M NaOH. The volume was subsequently made up to 100 mL with water. 200 mg porcine pancreatin (P1625, Sigma Aldrich) was gently dissolved into 20 mL preheated (37 °C) solution (10 g/L) immediately prior to the incubation.
(§2) The incubation was performed at 37 °C with gentle shaking. […] After the last timepoint, the sampling plate was mixed for 10 min on a shaking table and centrifuged 10 min at 2200 g. 70 µL resulting supernatant was diluted with 150 µL water, mixed and centrifugated before analysis by liquid chromatography high resolution mass spectrometry. […] Percent remaining at each timepoint was calculated relative to timepoint zero based on absolute peak areas.
Compounds with a SIF stability (after 4 h) above 70% are considered highly SIF stable.

Series [2] deals with T1, human IL-23R (Homo sapiens, UniProt Q5VWK5).
T1 sequence (Q5VWK5 22-629): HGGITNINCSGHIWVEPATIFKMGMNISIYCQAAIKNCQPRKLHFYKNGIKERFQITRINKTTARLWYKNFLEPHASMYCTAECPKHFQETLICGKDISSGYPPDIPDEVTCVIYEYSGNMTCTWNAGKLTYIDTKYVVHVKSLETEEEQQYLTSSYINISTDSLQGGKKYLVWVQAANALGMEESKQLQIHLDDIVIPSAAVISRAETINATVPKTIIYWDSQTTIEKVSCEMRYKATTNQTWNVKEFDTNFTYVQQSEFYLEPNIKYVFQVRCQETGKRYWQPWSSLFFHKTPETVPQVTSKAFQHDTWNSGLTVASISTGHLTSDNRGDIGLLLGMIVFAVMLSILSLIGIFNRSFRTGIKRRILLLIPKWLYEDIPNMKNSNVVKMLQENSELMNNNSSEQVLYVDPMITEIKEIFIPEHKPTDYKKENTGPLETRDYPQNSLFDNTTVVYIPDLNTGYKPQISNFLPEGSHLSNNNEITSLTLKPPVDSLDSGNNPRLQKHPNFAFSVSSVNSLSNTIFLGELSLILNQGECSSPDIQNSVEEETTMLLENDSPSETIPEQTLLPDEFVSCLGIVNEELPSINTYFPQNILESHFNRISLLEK
Kind of series: biochemical. Conditions: for Emax: read-out: % displacement (hIL-23R NIuc). The essentials: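 BRET displacement of a TAMRA-labelled reference compound from N-terminal Nanoluc-IL-23R fusion protein in membranes from stably transfected HEK293 cells. Incubation 2 h at room temperature, then Nanoluc substrate was added and the TAMRA/Nanoluc ratio read. IC50 and maximal displacement came from 4-parameter logistic fits.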

Series [3] can be described thus: Peptide stability in simulated gastric fluid (SGF). The class given is in vitro ADME. The conditions noted are these: 37 °C, porcine pepsin; for remaining at 1 h, 10 µM / remaining at 4 h, 10 µM: pig, simulated gastric fluid (SGF) with porcine pepsin (3.2 g/L); for remaining at 1 h, 10 µM: pH 1.2, 1 h, read-out: SGF (% remaining 1 h); for remaining at 4 h, 10 µM / SGF (% remaining 4 h): pH 1.2, 4 h. The method, then: as §1, §2
Compounds with a SGF stability (after 4 h) above 70% are considered highly SGF stable. […] Table 3-4: SGF data

The mark [4] stands for this setting: SAR tables, % peptide remaining, read-out: SIF (% after 4 h).
Where [5] appears, read: pH 1.2, 10 µM, read-out: SGF (% remaining 4 h).
[6] abbreviates: read-out: SIF (% remaining 4 h).

Regarding `CC[C@H](C)[C@@H]1NC(=O)[C@@H]2CCCCNC(=O)CC[C@@H](C(=O)N3CCNC3C(=O)N[C@@H](Cc3cccnc3)C(=O)NC)NC(=O)[C@](C)(CC(C)C)NC(=O)[C@H](Cc3ccc4ccccc4c3)NC(=O)[C@H](Cc3ccc(OCCN)cc3)NC(=O)[C@H](CCC(=O)N2)NC(=O)[C@H](CCC(N)=O)NC(=O)[C@H](Cc2c[nH]c3ccccc23)NC(=O)[C@H](C(C)C)NC1=O` (stereo partly drawn) [Compound 72, K(1c)(6c)^†IVWQE(6c)[Y(2-aminoethoxy)][2-Nal][2-Me-Leu]E(1c)[(R,S)-Imidazolidin-2-carbonyl][3-(3-Pyridyl)-Ala]-[NHMe]], the “SIF (% remaining 4 h)” value in series [1] was 110%. The remaining at 1 h, 10 µM in series [1] was 102%; in series [3] (pH 1.2, 10 µM), 94%. Moreover, the remaining at 4 h, 10 µM in series [1] (setting [4]) was 110%; in series [3] (setting [5]), 107%. This compound showed a pIC50 in series [2] of 7.00. Moreover, the Emax in series [2] was 97%.
As for `CNC(=O)[C@H](Cc1cccnc1)NC(=O)[C@H](CCN)NC(=O)[C@@H]1CCC(=O)NCCCC[C@@H]2NC(=O)CC[C@H](NC(=O)[C@H](CCC(N)=O)NC(=O)[C@H](Cc3c[nH]c4ccccc34)NC(=O)CCN(C)C2=O)C(=O)N[C@@H](Cc2ccc(OCCN)cc2)C(=O)N[C@@H](Cc2ccc3ccccc3c2)C(=O)N[C@@](C)(CC(C)C)C(=O)N1` [Compound 81, K(1c)(6c)^†[N-Me-3-Aminopropanoyl]WQE(6c)[Y(2-aminoethoxy)][2-Nal][2-Me-Leu]E(1c)[Dab][3-(3-Pyridyl)-Ala]-[NHMe]], in series [1], the remaining at 1 h, 10 µM is 101%. Further, the remaining at 4 h, 10 µM in series [1] (setting [6]) was 78%. Besides, in series [2], the “% displacement (hIL-23R NIuc)” value was 103% and the pIC50 was 10.25. For the same compound, the “SGF (% remaining 4 h)” value in series [3] (10 µM) is reported as 99%. Also, the remaining at 1 h, 10 µM in series [3] (pH 1.2, 10 µM) is 100%.
With `CC[C@H](C)[C@@H]1NC(=O)[C@@H]2CCCCNC(=O)CC[C@@H](C(=O)N[C@@H](CCN)C(=O)N[C@@H](Cc3cccnc3)C(=O)NC)NC(=O)CNC(=O)[C@H](Cc3ccc4ccccc4c3)NC(=O)[C@H](Cc3ccc(OCCN)cc3)NC(=O)[C@H](CCC(=O)N2)NC(=O)[C@H](CCC(N)=O)NC(=O)[C@H](Cc2c[nH]c3ccccc23)NC(=O)[C@H](C(C)C)NC1=O` [Compound 68, K(1c)(6c)^†IVWQE(6c)[Y(2-aminoethoxy)][2-Nal]GE(1c)[Dab][3-(3-Pyridyl)-Ala]-[NHMe]], in series [1], the “SIF (% remaining 4 h)” value was 0% and the remaining at 1 h, 10 µM was 33%. In series [1] (setting [4]), the remaining at 4 h, 10 µM is 0%. Further, in series [2], the pIC50 was 10.14 and the Emax came out at 99%. Moreover, in series [3] (10 µM), the “SGF (% remaining 4 h)” value is listed as 95%. Also, the remaining at 1 h, 10 µM in series [3] (pH 1.2, 10 µM) was 91%. The remaining at 4 h, 10 µM in series [3] (pH 1.2, SAR tables, % peptide remaining, 10 µM, read-out: SGF (% after 4 h)) was 95%.
As to `CNC(=O)[C@H](Cc1cccnc1)NC(=O)[C@H](CCN)NC(=O)[C@@H]1CCC(=O)NCCC[C@@H]2NC(=O)CC[C@H](NC(=O)[C@H](CCC(N)=O)NC(=O)[C@H](Cc3c[nH]c4ccccc34)NC(=O)CCNC2=O)C(=O)N[C@@H](Cc2ccc(OCCN)cc2)C(=O)N[C@@H](Cc2ccc3ccccc3c2)C(=O)N[C@@](C)(CC(C)C)C(=O)N1` [Compound 91, [Orn](1c)(6c)^†[3-Aminopropanoyl]WQE(6c)[Y(2-aminoethoxy)][2-Nal][2-Me-Leu]E(1c)[Dab][3-(3-Pyridyl)-Ala]-[NHMe]] ([Orn][βAla]WQE[AEF][2Nal][αMeL]E[Dab][3Pal]-NHMe; lactam 1-9, N-5), the remaining at 1 h, 10 µM was 98% in series [1] and 116% in series [3] (pH 1.2, 10 µM). Besides, the values for the remaining at 4 h, 10 µM in series [1] (setting [6]) and in series [3] (setting [5]) were 57% and 115%, respectively. The compound further gave a pIC50 in series [2] of 9.46. Moreover, the Emax in series [2] was 100%.
Consider `CC[C@H](C)[C@@H]1NC(=O)[C@@H]2CCCCNC(=O)CC[C@@H](C(=O)N[C@H](Cc3cnc[nH]3)C(=O)N[C@@H](Cc3cccnc3)C(=O)NC)NC(=O)[C@](C)(CC(C)C)NC(=O)[C@H](Cc3ccc4ccccc4c3)NC(=O)[C@H](Cc3ccc(OCCN)cc3)NC(=O)[C@H](CCC(=O)N2)NC(=O)[C@H](CCC(N)=O)NC(=O)[C@H](Cc2c[nH]c3ccccc23)NC(=O)[C@H](C(C)C)NC1=O` [Compound 70, K(1c)(6c)^†IVWQE(6c)[Y(2-aminoethoxy)][2-Nal][2-Me-Leu]E(1c)[{d}H][3-(3-Pyridyl)-Ala]-[NHMe]], for which the remaining at 1 h, 10 µM in series [1] is 101%; in series [3] (pH 1.2, 10 µM), 102%. Further, the remaining at 4 h, 10 µM was 72% in series [1] (setting [4]) and 95% in series [3] (setting [5]). The compound also had a pIC50 in series [2] of 9.39. Also, the Emax in series [2] turned out to be 101%.
`CC[C@H](C)[C@@H]1NC(=O)[C@@H]2CCCCNC(=O)CC[C@@H](C(=O)N[C@@H](Cc3cn(C)cn3)C(=O)N[C@@H](Cc3cccnc3)C(=O)NC)NC(=O)[C@](C)(CC(C)C)NC(=O)[C@H](Cc3ccc4ccccc4c3)NC(=O)[C@H](Cc3ccc(OCCN)cc3)NC(=O)[C@H](CCC(=O)N2)NC(=O)[C@H](CCC(N)=O)NC(=O)[C@H](Cc2c[nH]c3ccccc23)NC(=O)[C@H](C(C)C)NC1=O` [Compound 73, K(1c)(6c)^†IVWQE(6c)[Y(2-aminoethoxy)][2-Nal][2-Me-Leu]E(1c)[H(1-Me)][3-(3-Pyridyl)-Ala]-[NHMe]]: the remaining at 1 h, 10 µM in series [1] was 11%; in series [3] (pH 1.2, 10 µM), 100%. In addition, the remaining at 4 h, 10 µM in series [1] (setting [6]) is 0%; in series [3] (setting [5]), 99%. Further, the “% displacement (hIL-23R NIuc)” value in series [2] worked out at 102%. Moreover, the pIC50 in series [2] is 9.92.
For the compound `CNC(=O)[C@H](Cc1cccnc1)NC(=O)[C@H](CCN)NC(=O)[C@@H]1CCC(=O)NCCCC[C@H]2C(=O)NCCC(=O)N[C@@H](Cc3c[nH]c4ccccc34)C(=O)N[C@@H](CCC(N)=O)C(=O)N[C@@H](CCC(=O)N2C)C(=O)N[C@@H](Cc2ccc(OCCN)cc2)C(=O)N[C@@H](Cc2ccc3ccccc3c2)C(=O)N[C@@](C)(CC(C)C)C(=O)N1` [Compound 80, [N-Me-Lys](1c)(6c)^†[3-Aminopropanoyl]WQE(6c)[Y(2-aminoethoxy)][2-Nal][2-Me-Leu]E(1c)[Dab][3-(3-Pyridyl)-Ala]-[NHMe]] ([NMeK][βAla]WQE[AEF][2Nal][αMeL]E[Dab][3Pal]-NHMe; lactam 1-9, N-5), the remaining at 1 h, 10 µM in series [1] is 116%; in series [3] (pH 1.2, 10 µM), 107%. Moreover, the remaining at 4 h, 10 µM in series [1] (setting [6]) was 89%; in series [3] (setting [5]), 104%. The same compound showed a pIC50 in series [2] of 10.77. Moreover, the Emax in series [2] amounted to 102%.
On to `CC[C@H](C)[C@@H]1NC(=O)[C@@H]2CCC(=O)N(C)CCCC[C@@H](C(=O)N[C@@H](CCN)C(=O)N[C@@H](Cc3cccnc3)C(=O)NC)NC(=O)[C@](C)(CC(C)C)NC(=O)[C@H](Cc3ccc4ccccc4c3)NC(=O)[C@H](Cc3ccc(OCCN)cc3)NC(=O)[C@H](CCC(=O)N2)NC(=O)[C@H](CCC(N)=O)NC(=O)[C@H](Cc2c[nH]c3ccccc23)NC(=O)[C@H](C(C)C)NC1=O` [Compound 74, E(1c)(6c)^†IVWQE(6c)[Y(2-aminoethoxy)][2-Nal][2-Me-Leu][K(Me)](1 c)[Dab][3-(3-Pyridyl)-Ala]-[NHMe]] (EIVWQE[AEF][2Nal][αMeL][Lys(Me)][Dab][3Pal]-NHMe; lactam 1-10, N-6), for which the remaining at 1 h, 10 µM was 91% in series [1] and 94% in series [3] (pH 1.2, 10 µM). In addition, the remaining at 4 h, 10 µM in series [1] (setting [6]) was 89%; in series [3] (setting [5]), 92%. The Emax in series [2] came out at 99%.
